Data as given in paper PMC7274485, “A symbiotic bacterium of shipworms produces a compound with broad spectrum anti-apicomplexan activity” (PLoS Pathogens, 2020).

Experiments:
Plasmodium falciparum = test: P. falciparum-infected erythrocyte proliferation, SYBR green incorporation; format: cell-based; settings: infected erythrocytes, 72 hours; read-out: EC50 against P. falciparum
Text: The maintenance of Plasmodium falciparum cultures and conducting of in vitro inhibitor response assays have been previously described.

Gram positive bacteria = settings: cited from earlier work
Gram negative bacteria = settings: cited from earlier work
NLRP3 inflammasome = test system: NLRP3 inflammasome; set-up: method as in PMID 30183250; settings: through activity as a potassium ionophore; cited from earlier work
[1] = test system: hypoxia-inducible factor-1 transcription; set-up: method as in PMID 17256467; settings: under hypoxic conditions; cited from earlier work
rodent malaria = test system: rodent malaria; set-up: method as in PMID 994322; settings: cited from earlier work
poultry coccidiosis = test system: poultry coccidiosis; set-up: method as in earlier work; settings: cited from earlier work

SMILES: C[C@H]1[C@@H](O)O[C@@H]2O[C@@]3(C)CC[C@H]4[C@H](C)CC[C@@H]1[C@@]24OO3 [DHA, dihydroartemesinin, reference compound]
- EC50 (Plasmodium falciparum): 20 pM

SMILES: C[C@@H]1C(=O)C[C@@H](O)CC/C=C/C=C\CC[C@H](C)OC(=O)C(O)[C@]2(O)O[C@@H](CC[C@H]2C)[C@H](C)C(=O)C[C@@H](O)CC/C=C/C=C\CC[C@H](C)OC(=O)C(O)[C@]2(O)O[C@H]1CC[C@H]2C (stereo partly drawn) [Tartrolon A]
- Activity against Gram positive bacteria (Gram positive bacteria): activity against Gram positive
- Activity against Gram negative bacteria (Gram negative bacteria): not Gram negative bacteria

SMILES: C[C@@H]1C(=O)C[C@@H](O)CC/C=C\C=C\CC[C@H](C)OC(=O)[C@@H]2O[B-]34O[C@@H](C(=O)O[C@@H](C)CC/C=C\C=C\CC[C@H](O)CC(=O)[C@@H](C)[C@@H]5CC[C@@H](C)[C@]2(O5)O3)[C@@]2(O[C@H]1CC[C@H]2C)O4.[Na+] [Tartrolon B]
- Activity against Gram positive bacteria (Gram positive bacteria): activity against Gram positive
- Activity against Gram negative bacteria (Gram negative bacteria): not Gram negative bacteria
- Activation of the NLRP3 inflammasome (NLRP3 inflammasome): activate the NLRP3 inflammasome

SMILES: C[C@@H]1C(=O)C[C@@H](O)CC/C=C/C=C\CC[C@H](C)OC(=O)[C@@H]2O[B-]34O[C@@H](C(=O)O[C@@H](C)CC/C=C\C=C\CC[C@H](O)CC(=O)[C@@H](C)[C@@H]5CC[C@](C)(O)[C@]2(O5)O3)[C@@]2(O[C@H]1CC[C@]2(C)O)O4 [Tartrolon C]
- Inhibition of hypoxia-inducible factor-1 transcription [1]: inhibit hypoxia-inducible factor-1 transcription

SMILES: C[C@@H]1CC[C@@H]2O[C@]13O[B-]14O[C@H]3C(=O)O[C@H]3C[C@@H](/C=C/C[C@@H](O)C(C)(C)[C@@H]5CC[C@@H](C)[C@](O5)(O1)[C@@H](O4)C(=O)O[C@H]1C[C@@H](/C=C/C[C@@H](O)C2(C)C)O[C@@H]1C)O[C@@H]3C.[Na+] [aplasmomycin]
- In vivo activity against rodent malaria (rodent malaria): active in vivo

SMILES: CC(C)[C@@H](N)C(=O)O[C@H](C)[C@@H]1C/C=C\CC[C@H](O)C(C)(C)[C@@H]2CC[C@@H](C)[C@@]3(O2)O[B-]24O[C@@H](C(=O)O1)[C@]1(O[C@@H](CC[C@H]1C)C(C)(C)[C@H](O)CCC[C@@H]1C[C@H](OC(=O)[C@@H]3O2)[C@@H](C)O1)O4.[H+] [boromycin]
- In vivo activity against poultry coccidiosis (poultry coccidiosis): active in vivo
